Test results reported in US20130065792A1, “INDUCIBLE EXPRESSION OF SGLT5, METHODS AND KITS USING THE SAME” (BOEHRINGER INGELHEIM INTERNATIONAL GMBH, priority 2011, published 2013).

Columns and labels:
Format in all cases: cell-based
SGLT5 [1] = biological target: T1, SGLT5 (Homo sapiens, UniProt A0PJK1); test: Competitive assay to inhibit C14-labeled AMG uptake into transfected HEK cells (Reference Example); details: constitutive expression; called unreliable
T1 construct: expressed in transfected cells; host or cells: T-Rex 293 cells (Invitrogen), stably transfected with pT-Rex-Dest30-hSGLT5; expression induced with tetracycline; deposited clone DSM ACC3096
T1 sequence (A0PJK1 1-596): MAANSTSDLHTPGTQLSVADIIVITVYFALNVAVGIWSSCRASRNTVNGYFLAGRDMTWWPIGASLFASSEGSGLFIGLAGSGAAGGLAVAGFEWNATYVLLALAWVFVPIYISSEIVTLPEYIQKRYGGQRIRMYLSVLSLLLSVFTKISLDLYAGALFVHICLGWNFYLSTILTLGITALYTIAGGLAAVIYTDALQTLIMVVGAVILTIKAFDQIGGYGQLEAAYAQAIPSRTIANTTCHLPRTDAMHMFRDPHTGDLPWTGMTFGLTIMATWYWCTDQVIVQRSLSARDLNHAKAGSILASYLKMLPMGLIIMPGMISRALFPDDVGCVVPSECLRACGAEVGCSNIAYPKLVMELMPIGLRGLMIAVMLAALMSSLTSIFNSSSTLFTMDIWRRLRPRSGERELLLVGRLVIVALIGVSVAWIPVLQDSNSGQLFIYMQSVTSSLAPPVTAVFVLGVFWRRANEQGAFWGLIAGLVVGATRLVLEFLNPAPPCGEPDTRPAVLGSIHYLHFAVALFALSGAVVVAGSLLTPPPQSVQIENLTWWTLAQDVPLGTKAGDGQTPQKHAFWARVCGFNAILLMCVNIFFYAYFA
Experimental: SGLT5 was cloned as described in Example 1. However, instead of using the inducible pT-Rex-Dest30 plasmid the sequence was inserted into the expression plasmid pcDNA3.1/V5-His for constitutive expression. Using lipofection HEK/293 cells (ATCC) were stably transfected. The expression plasmid contained resistance to geneticin as a selection marker. The cells were cultivated in DMEM with 10% FCS and […] geneticin for selecting transfected cells. Expression was tested by RT-PCR.
Furthermore, cells were tested for uptake of C^14-labeled galactose in an assay as described in Example 1. […] In addition, a competitive assay to inhibit C^14-labeled AMG uptake into the transfected HEK cells was performed.

SGLT5 [2] = biological target: T1, SGLT5; test: Time dependent specific uptake of [14C]-monosaccharides by T-Rex 293-hSGLT5 cells (FIG. 3); details: 1 mM monosaccharide, 5-60 min, tetracycline induced T-Rex 293-hSGLT5 cells
Experimental: [^14C]-saccharide uptake experiments: 30000 cells per well were seeded in white poly-D-lysine-coated 96-well plates and incubated over night. The expression of hSGLT5 was induced 24 h before the start of uptake experiments by the addition of 1 μg/ml tetracycline to the cells. For the assay, cells were washed twice with 250 μl pre-treatment buffer [140 mM cholinchloride in basal buffer (10 mM HEPES; 5.4 mM KCl; 2.8 mM CaCl2*2 H2O; 1.2 mM MgSO4*7 H2O; 0.1% BSA, pH 7.4) and incubated in 200 μl pre-treatment buffer for 25 min at 37° C. Pre-treatment buffer was removed and 200 μl uptake buffer was added to the cells (140 mM NaCl in basal buffer containing 1 mM cold monosaccharide [either glucose, fructose, mannose, galactose or alphamethyl glucopyranoside (AMG), respectively]+0,6 μCi [^14C]-labelled monosaccharide [either glucose, fructose, mannose, galactose or alpha-methyl glucopyranoside (AMG), respectively] (Hartmann Analytics, Mannheim, Germany) and 10 μM Cytochalasin B. After incubation for 5, 10, 30 and 60 minutes at 37° C., the cells were washed three times with 300 μl PBS (Cambrex, Verviers, Belgium) and then lysed in 0.1 N NaOH with intermittent shaking for 5 min. The lysate was mixed with 200 μl MikroScint 40 Scintillator, shaken for 15 min and counted for radioactivity in the TopCount NXT (Canberra Packard, Schwadorf, Austria). Specific sugar uptake was determined by subtracting non-specific uptake of each sugar (in the presence of choline chloride) from total uptake of the same sugar (in the presence of sodium chloride).
Furthermore, a protocol was established to measure the specific uptake of monosaccharides e.g. mannose, fructose, glucose, AMG and galactose by hSGLT5, It could be shown that the transporter takes up mannose and fructose with high affinity and hardly transports glucose, AMG and galactose (FIG. 3). […] Specific uptake was calculated by subtracting the respective monosaccharide uptake in the presence of choline chloride from the total uptake of the same monosaccharide in the presence of sodium chloride.

SGLT5 [3] = biological target: T1, SGLT5; test: FLIPR membrane potential assay in HEK/293 cells constitutively expressing SGLT5 (Reference Example); details: constitutive expression; results later called unreliable and irreproducible
Experimental: FLIPR assay: Changes in membrane potential can be assayed using the FLIPR TETRA Assay (Molecular Devices). In this method cells are loaded with a fluorescent dye, which emits light of a different wavelength dependent on the membrane potential. This can be recorded in suitable cell culturing plates and monitored over time in the presence/absence of a test substance.
10.000 to 30.000 cells were seeded in a 384 well plate (black, lysine coated with transparent bottom, Becton Dickinson) and were incubated over night at 37° C. and 5% CO2. The next day they were washed twice with 50 μl assay buffer (140 mM NaCl; 1.26 mM CaCl2; 0.49 mM MgCl2*6 H2O; 0.41 mM MgSO4*7 H2O; 5.33 mM KCl; 0.44 mM KH2PO4−pH =7.4). […]
After starting the measurement ten sample points were assayed at intervals of 3 seconds. Thereafter […] of the dissolved test substances (e.g. monosaccharide and/or KCl) were added and 30 measurements were recorded in 3-second intervals, thereafter 16 measurements were recorded in 15-second intervals. […]
Cells showing strong expression by PCR were subcloned and propagated. […] According to the fluorescence signal induced by KCl a number of 30,000 cells/well was determined to provide the highest fluorescence signal. […] Thereafter cells were exposed to glucose, galactose, fructose, AMG or mannose in different concentrations and changes in fluorescence were recorded as described in Example 1. […]

SGLT5 [4] = biological target: T1, SGLT5; test: Uptake of C14-labeled galactose in HEK/293 cells constitutively expressing SGLT5 (Reference Example); details: galactose 0.1 mM; constitutive expression; called unreliable
Experimental: [^14C]-saccharide uptake experiments: 30000 cells per well were seeded in white poly-D-lysine-coated 96-well plates and incubated over night. The expression of hSGLT5 was induced 24 h before the start of uptake experiments by the addition of 1 μg/ml tetracycline to the cells. For the assay, cells were washed twice with 250 μl pre-treatment buffer [140 mM cholinchloride in basal buffer (10 mM HEPES; 5.4 mM KCl; 2.8 mM CaCl2*2 H2O; 1.2 mM MgSO4*7 H2O; 0.1% BSA, pH 7.4) and incubated in 200 μl pre-treatment buffer for 25 min at 37° C. […] The lysate was mixed with 200 μl MikroScint 40 Scintillator, shaken for 15 min and counted for radioactivity in the TopCount NXT (Canberra Packard, Schwadorf, Austria). Specific sugar uptake was determined by subtracting non-specific uptake of each sugar (in the presence of choline chloride) from total uptake of the same sugar (in the presence of sodium chloride). […]

- inhibitory effect on C14-labeled AMG uptake (in words) (SGLT5 [1]): highest inhibitory effect
- specific uptake / affinity for hSGLT5 (in words) (SGLT5 [2]): very low affinity
- signal for depolarisation (FLIPR, in words) (SGLT5 [3]): strongest signal for depolarisation
- uptake signal relative to the negative control (absolute cpm) (SGLT5 [4]): approximately 3 fold
SMILES: O=C[C@H](O)[C@@H](O)[C@@H](O)[C@H](O)CO [galactose]
